# Measured values published in PMC9916778 (International Journal of Molecular Sciences, 2023).
# Read-outs that look alike come from different tables or passages of the source.
# Legend:
# A2780 cells [1] = assay: Cell cycle analysis (flow cytometry); type: cell-based, human; conditions: A2780, half-cytotoxic concentration, 24 h
# Experimental: After 24 h, the cells were treated with a 4 µM solution of complex (1) and cultivated for the next 24 h. Then, the cells were washed once with PBS (0.1 M, pH 7.4), and cell cycle analysis was performed using a BD Cycletest^TM Plus DNA kit (Becton Dickinson, Franklin Lakes, NJ, USA) according to the manufacturer’s protocol. The data were acquired using a BD FACSVerse flow cytometer (Becton Dickinson, USA) in three independent experiments, each performed in duplicate, while at least 5 × 10^3 events were recorded for each sample.
# A2780 cells [2] = assay: Induction of apoptosis, Annexin V-FITC/PI staining; type: cell-based, human; conditions: A2780, half-cytotoxic concentration, 24 h
# Experimental: The induction of cell death by complex (1) was studied by two methods in the A2780 cell line. Firstly, the induction of apoptosis was tested using an Annexin V-FITC/PI commercial kit (V13242, Thermo Fisher Scientific, USA). Second, caspase 3/7 activation was monitored using the CellEvent™ Caspase-3/7 Green Flow Cytometry Assay Kit (C10427, Thermo Fisher Scientific, USA). Both assays were performed according to the manufacturers’ protocols with one modification in the caspase induction assay: the use of CellEvent^TM Caspase-3/7 Green Detection Reagent was only for the detection of caspase 3/7 activation. The general procedure was as follows: 5 × 10^4 cells per well were seeded in a 24-well cell culture plate, and after 24 h, the cells were treated with 4 µM solution of complex (1) and cultivated for next 24 h. […] The trypsin was blocked by adding the cell culture medium to a final volume of 500 µL, and the resulting cell suspensions were divided into two separate 250 µL aliquots. The first set of aliquots was used to evaluate the Annexin V-FITC/PI assay, whilst the second one was used for the caspase 3/7 activation assay. Both assays were performed using a BD FACSVerse flow cytometer (Becton Dickinson, USA) in three independent experiments, each performed in duplicate.
# NF-κB = NF-κB activity in LPS-challenged cells (SEAP reporter); type: cell-based, human; conditions: 100 nM, 1 h pre-treatment, LPS 24 h, THP1-Blue NF-κB monocytes
# Experimental: The effect of the tested compounds to influence the function of transcription factor NF-κB was determined on lipopolysaccharide (LPS)-challenged THP1-Blue™ NF-κB cells as we described previously. […] After 24 h incubation, the activity of NF-κB was determined as the amount of secreted embryonic alkaline phosphatase using Quanti-Blue™ medium (Invivogen).
# A2780 cells [3] = assay: Mitochondrial membrane potential analysis (MITO-ID); type: cell-based, human; conditions: A2780, half-cytotoxic concentration, 24 h
# Experimental: The A2780 cells were seeded in 24-well cell culture plates at 5 × 10^4 cells/well and cultivated for 24 h. The next day, the complex (1) was added to a final concentration of 4 µM, and the cells were incubated for another 24 h. […] The cells were then isolated by centrifugation and resuspended in a staining solution prepared according to the manufacturer’s protocol from a MITO-ID® Membrane Potential Detection kit (Enzo Life Sciences, USA). Finally, the cells were analyzed using a BD FACSVerse flow cytometer (Becton Dickinson, USA). The control was carried out by treatment with 2 µM carbonyl cyanide 3-chlorophenylhydrazone (CCCP). Three independent experiments were conducted, each in duplicate.
# A2780 cells [4] = assay: Time-dependent cellular uptake of gold (ICP-MS); type: in vitro ADME, human
# Experimental: Figure 3 The intracellular gold concentration levels caused by the incubation of [Au(kin)(PPh3)] (1), [Au(PPh3)Cl], and Auranofin with A2780 cells after 2 h, 6 h, 12 h, 24 h, 48 h, and 72 h. The results were obtained by ICP-MS analyses of three parallel samples and are shown as mean values with error bars corresponding to the standard deviation values of the gold concentration expressed in ng of gold per 10^6 cells. TEXT PRINTED IN THE PICTURE: [Au(kin)PPh3] (1): Intracellular Au content [ng/10^6 cells]: 121.3; Intracellular Au content [ng/10^6 cells]: 97.1; Intracellular Au content [ng/10^6 cells]: 88.8; Intracellular Au content [ng/10^6 cells]: 89.4; Intracellular Au content [ng/10^6 cells]: 287.5; Intracellular Au content [ng/10^6 cells]: 352.9 | Auranofin: Intracellular Au content [ng/10^6 cells]: 182.5; Intracellular Au content [ng/10^6 cells]: 231.1; Intracellular Au content [ng/10^6 cells]: 361.3; Intracellular Au content [ng/10^6 cells]: 333.9; Intracellular Au content [ng/10^6 cells]: 555.3; Intracellular Au content [ng/10^6 cells]: 320.2 | [Au(PPh3)Cl]: Intracellular Au content [ng/10^6 cells]: 84.6; Intracellular Au content [ng/10^6 cells]: 106.1; Intracellular Au content [ng/10^6 cells]: 80.7; Intracellular Au content [ng/10^6 cells]: 97.6; Intracellular Au content [ng/10^6 cells]: 304.2; Intracellular Au content [ng/10^6 cells]: 415.8 DOUBTS OF THE COPYIST ABOUT THIS PICTURE: Point labels are black, not coloured by series. Where the [Au(kin)PPh3] (1) and [Au(PPh3)Cl] curves run close together, I assigned the labels by their position above or below the points: 97.1/106.1, 88.8/80.7, 89.4/97.6 and 287.5/304.2. These assignments are not fully certain. / No incubation time is printed beside any point label, only on the axis, so no time condition is given with the values.
# THP1-Blue™ NF-κB cells = assay: Cell viability, CCK-8, serum-free medium; type: cell-based, human
# Experimental: The cells were cultivated in RPMI (Roswell Park Memorial Institute) 1640 medium (Biosera; Nuaille, France) supplemented with 10% fetal bovine serum (FBS) and antibiotics (100 U/mL penicillin and […] streptomycin) (both from Merck). All further experiments were performed in serum-free medium. The effect of the test compounds dissolved in DMF on cell viability after 24 h incubation was determined using a Cell Counting Kit-8 (CCK-8; Merck) according to the manufacturer’s instructions, similarly as previously described.
# [5] = test system: A2780 ovarian carcinoma cells; assay: In vitro cytotoxicity (MTT assay), A2780; type: cell-based, human
# Experimental: The reference normal cell line of human fetal fibroblasts (MRC-5) was obtained from the same commercial source and maintained according to the producer’s instructions. The half-maximal inhibitory concentrations (IC50) were calculated from dose–response curves by means of the GraphPad Prism 6 software (GraphPad Software, San Diego, CA, USA).
# [6] = MTT, 24 h incubation, ± standard deviation, triplicate, read-out: IC50, A2780
compound,measurement,setting,value
"CC[PH](CC)(CC)[Au][S][C@@H]1O[C@H](COC(C)=O)[C@@H](OC(C)=O)[C@H](OC(C)=O)[C@H]1OC(C)=O [Auranofin, [3,4,5-triacetyloxy-6-(acetyloxymethyl)-oxane-2-thiolate-(triethylphosphine)gold(I)]]",Population of cells in G2/M phase,A2780 cells [1],23.3 ± 3.6%
same,Population of cells in S phase,A2780 cells [1],19.4 ± 0.5%
same,Number of cells in the G0/G1 phase,A2780 cells [1]; vs untreated control,significant decrease in the number of cells in the G0/G1 phase
same,Cells in late stage apoptosis (Annexin V+/PI+),A2780 cells [2],around 80%
same,Effect on LPS-stimulated NF-κB activity,NF-κB,the only gold(I) complex able to inhibit the activity of pro-inflammatory transcription factor NF-κB
same,Cells with loss of mitochondrial membrane potential,A2780 cells [3],more than 80%
same,Excess of intracellular gold level over [Au(kin)(PPh3)] and [Au(PPh3)Cl],"A2780 cells [4]; A2780 cells, after 12 h of incubation",up to 4 times
same,IC50,"THP1-Blue™ NF-κB cells; THP1-Blue NF-κB cells, serum-free medium, 24 h treatment, CCK-8, read-out: IC50 ± SEM, cytotoxic effect",500 ± 1100 nM
same,IC50,"[5]; 24 h incubation, read-out: Time-dependent in vitro cytotoxicity (IC50), A2780, 24 h",3400 ± 900 nM
same,IC50,"[5]; 72 h incubation, read-out: Time-dependent in vitro cytotoxicity (IC50), A2780, 72 h",2000 ± 100 nM
same,IC50,[5]; [6],3400 ± 900 nM
same,IC50,"[5]; read-out: Time-dependent in vitro cytotoxicity (IC50), A2780, 48 h, 48 h incubation",2100 ± 400 nM
[Cl][Au].c1ccc(P(c2ccccc2)c2ccccc2)cc1 [[Au(PPh3)Cl]],Effect on the cell cycle,A2780 cells [1],practically no effect on the cell cycle
same,Cells in early stage apoptosis (Annexin V+/PI-),A2780 cells [2],around 10%
same,Cells in late stage apoptosis (Annexin V+/PI+),A2780 cells [2],around 30%
same,Effect on LPS-stimulated NF-κB activity,NF-κB,possessed some activity
same,Damage to mitochondrial membranes,A2780 cells [3],Significant changes in mitochondrial membrane permeability
same,"Intracellular Au content, 2 h",A2780 cells [4],84.6 ng/10^6 cells
same,"Intracellular Au content, 6 h",A2780 cells [4],106.1 ng/10^6 cells
same,"Intracellular Au content, 12 h",A2780 cells [4],80.7 ng/10^6 cells
same,"Intracellular Au content, 24 h",A2780 cells [4],97.6 ng/10^6 cells
same,"Intracellular Au content, 48 h",A2780 cells [4],304.2 ng/10^6 cells
same,"Intracellular Au content, 72 h",A2780 cells [4],415.8 ng/10^6 cells
same,IC50,THP1-Blue™ NF-κB cells,1100 ± 1100 nM
same,IC50,[5]; [6],3500 ± 500 nM
same,IC50,"[5]; read-out: IC50, A2780, after 48 h and 72 h incubation, 48 h and 72 h incubation, insignificant changes",~3000 nM
